Laboratory results reported in paper PMC9344054, “Studies on Chemical Characterization of Ginkgo Amillaria Oral Solution and Its Drug–Drug Interaction With Piceatannol 3′-O-β-D-Glucopyranoside for Injection” (Frontiers in Pharmacology, 2022).

Columns and labels:
UGT1A1 = experiment: Metabolism of PG based on UGTs, rat liver microsomes with inhibitor pazopanib; format: in vitro ADME; settings: PG 10 μmol L−1, pazopanib 50 μmol L−1, p > 0.05
Method: (§1) The incubation mixtures consisted of 1 mg mL^−1 of rat liver microsomes, 1 mmol L^−1 of UDPGA and 10 μmol L^−1 of PG, tris-HCl (pH = 7.4) and inhibitor (pazopanib (50 μmol L^−1)), niflumic acid (10 μmol L^−1), and fluconazole (50 μmol L^−1). The incubation system was the same as that in “2.4.1.,” whereas polydatin (20 μg mL^−1) was selected as the IS. Detection and analysis conditions based on UPLC-QQQ-MS were the same as those in “2.4.2.” The MRM transitions, cone voltage, and collision voltage of the target compounds and IS are shown in Supplementary Table S1.

UGT1A9 = experiment: Metabolism of PG based on UGTs, rat liver microsomes with inhibitor niflumic acid; format: in vitro ADME; settings: PG 10 μmol L−1, niflumic acid 10 μmol L−1, p < 0.0001
Method: as §1

[1] = Identification of metabolites of PG in vivo (plasma, bile, urine, feces); design: species or system rat; settings: rats
Method: Nine Sprague–Dawley (SD) male rats (200 ± 20 g) were purchased from Beijing Vital River Laboratory Animal Technology Co., Ltd. (license number: SCXK (Beijing) 2016-0006).
The plasma samples were the same as in the pharmacokinetic experiment; PGI (9 mg kg^−1) was injected into the tail vein of three rats to collect the bile samples for 0–6 h, and saline (9 mg kg^−1) was injected into the tail vein of three rats to collect the normal bile samples. PGI (9 mg kg^−1) was injected into the tail vein of three rats to collect urine (0–4 h) samples and feces (0–6 h) samples after collecting the blank urine and feces samples. All samples were stored at −80℃ for further analysis.
(§2) Plasma samples: 40 μl of plasma samples at different time points were taken and mixed together in a 2 ml centrifuge tube; 1,280 μl of ice acetonitrile was added. The mixture was vortexed for 3 min and centrifuged at 13,200 × g under 4℃ for 10 min. The supernatant was transferred to another centrifuge tube and dried with nitrogen, re-dissolved with 60 μl of 80% methanol-H2O (v/v). For further LC-MS analysis, 3 μl of the supernatant was injected.
Bile samples: 100 μl of bile sample was taken using a 0.22 μm filter, the mixture was vortexed for 3 min, and centrifuged at 13200 × g under 4℃ for 10 min. For further LC-MS analysis, 3 μl of the supernatant was injected.
Fecal samples: 100 mg of the sample was weighed into a 1.5 ml centrifuge tube, 400 μl of ice acetonitrile was added, and the mixture was vortexed for 3 min and centrifuged at 13,200 × g under 4℃ for 10 min. For further LC-MS analysis, 3 μl of the supernatant was injected.
as §2, with “Urine sample: 600” for “Plasma samples: 40”, “urine sample was” for “plasma samples at different time points were”, “taken out,” for “taken”, “2,400” for “mixed together in a 2 ml centrifuge tube; 1,280”
An ultrahigh-performance liquid chromatography-mass spectrometer (Waters, United States) was performed for separation and detection. A Waters ACQUITY UPLC HSS T3 column (2.1 × 100 mm, 1.8 μm) was employed at 30℃ with a flow rate of 0.3 ml min^−1. The mobile phase consisted of acetonitrile (B) and water containing 0.1% FA ([…]). The following linear gradient was used: 0–0.5 min: 5–7% B; 0.5–2.5 min: 7–8.8% B; 2.5–5.5 min: 8.8–16.9% B; 5.5–14 min: 16.9–24.7% B; 14–23 min: 24.7–52% B; and 23–30 min: 52–95% B.
DDA was performed using the Q Exactive™ hybrid quadrupole–Orbitrap mass spectrometer both in negative and positive mode. […]

[2] = rats, 2020, cited from earlier work

contribution of UGT1A1 to metabolism of PG (UGT1A1): contributed little or no participation
metabolism of PG by UGT1A9 (UGT1A9): mainly metabolized by UGT1A9
metabolites in fecal samples [1]: No metabolites were detected
number of metabolites identified in bile ([1]; PGI 9 mg kg−1 tail vein, bile 0–6 h, all phase II): five
number of metabolites identified in plasma ([1]; PGI 9 mg kg−1 tail vein, all phase II metabolites): four
SMILES: OC[C@H]1O[C@@H](Oc2cc(/C=C/c3cc(O)cc(O)c3)ccc2O)[C@H](O)[C@@H](O)[C@@H]1O [PG, Piceatannol-3′-O-β-D-glucopyranoside]
metabolic route of PG in vivo ([1]; PGI 9 mg kg−1 tail vein): mainly undergoes a phase II binding reaction mediated by UGT and SULT
excretion of the prototype of PG ([2]; 40.0 mg kg−1 PG, tail vein and intragastric administration, ref Xu): mainly excreted through urine
distribution ([2]; ref Chai, 2019, Xu): widely distributed
elimination rate ([2]; ref Chai, 2019, Xu): fast elimination rate
excretion ([2]; ref Chai, 2019, Xu): mainly excreted by urine
kinetics ([2]; ref Chai, 2019, Xu): linear kinetics
